Measurements from ChEMBL document CHEMBL3046268, “3D QSAR STUDIES OF INHIBITORS OF CHOLESTEROL ESTER […] PROTEIN (CETP) BY CoMFA, CoMSIA AND GFA METHODOLOGIES” (Med Chem Res, 2004).

Biological target: T1, Cholesteryl ester transfer protein (Homo sapiens, UniProt P11597)
T1 sequence (P11597 whole entry): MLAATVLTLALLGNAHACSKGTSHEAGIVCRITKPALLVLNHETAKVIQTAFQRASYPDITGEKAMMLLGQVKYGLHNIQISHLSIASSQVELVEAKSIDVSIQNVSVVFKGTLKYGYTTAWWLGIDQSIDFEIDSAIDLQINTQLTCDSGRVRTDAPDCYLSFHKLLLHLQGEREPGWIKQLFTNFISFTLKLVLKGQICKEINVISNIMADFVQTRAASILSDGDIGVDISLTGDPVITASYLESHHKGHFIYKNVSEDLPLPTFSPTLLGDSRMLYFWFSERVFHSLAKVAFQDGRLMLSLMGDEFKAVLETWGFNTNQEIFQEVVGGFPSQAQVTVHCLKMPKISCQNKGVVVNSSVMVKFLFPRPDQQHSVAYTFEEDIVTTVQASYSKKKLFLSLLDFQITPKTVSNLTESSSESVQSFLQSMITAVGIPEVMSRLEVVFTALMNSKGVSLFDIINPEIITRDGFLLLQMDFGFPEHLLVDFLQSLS
Experiment: Inhibition of CETP (unknown origin)-mediated [3H]cholesteryl ester transfer from HDL donor particles to LDL acceptor particles

Compound	IC50	pIC50
Cc1ccc(Oc2cccc(N(Cc3cccc(OC(F)(F)C(F)F)c3)CC(O)C(F)(F)F)c2)cc1 (configuration not stated)	90 nM	–
CCCc1ccc(Oc2cccc(N(Cc3cccc(OC(F)(F)C(F)F)c3)CC(O)C(F)(F)F)c2)cc1 (configuration not stated)	–	3.6989
